Assay results published in patent US20130137706A1, “Antimicrobial Molecules For Treating Multi-Drug Resistant and Extensively Drug Resistant Strains Of Mycobacterium” (POLYMEDIX, INC., priority 2008, published 2013).
≈ marks a conversion by molar mass, not a printed value. Read-outs that look alike come from different tables or passages of the source.

Experiments:
[1] = test system: monkey VERO cells; assay: VERO cell cytotoxicity assay (luminescent ATP cell viability, 72 hour exposure); type: cell-based; details: Primates
[2] = test system: M. tuberculosis (H37Rv strain); assay: Microplate Alamar Blue Assay (MABA) susceptibility assay in BACTEC 12B medium; type: cell-based; details: Mycobacterium tuberculosis
[3] = Vero, summary of Table 1, read-out: EC50 value (v. Monkey VERO Cells)
[4] = VERO cells, 72 hour exposure, ATP luminescence, read-out: EC50 VERO cells
[5] = H37Rv strain, MABA, 90% reduction in fluorescence relative to controls, read-out: IC90 M. tuberculosis (H37Rv strain)
[6] = Table 1, H37Rv strain, read-out: IC90 value (v. M. tuberculosis)

Row | Compound | EC50 [1, 3] | EC50 [1, 4] | IC90 [2, 5] | IC90 [2, 6]
1 | N=C(N)NCCCCC(=O)Nc1cccc(NC(=O)c2cc(C(=O)Nc3cccc(NC(=O)CCCCNC(=N)N)c3SCCN)ncn2)c1SCCN [Compound 3] | > 100 µg/mL | > 100 µg/mL | 3.6 µg/mL (≈ 4.61 µM) | < 5 µg/mL
2 | CC(C)(C)c1cc(N)c(SCCNC(=N)N)c(NC(=O)c2cc(C(=O)Nc3cc(C(C)(C)C)cc(N)c3SCCNC(=N)N)c(OCCNC(=N)N)cc2OCCNC(=N)N)c1 [Compound 2] | > 300 µg/mL | > 300 µg/mL | 4.5 µg/mL (≈ 5.03 µM) | < 5 µg/mL
3 | CC(C)(C)c1cc(N)c(SCCNC(=N)N)c(NC(=O)c2cc(OCCNC(=N)N)cc(C(=O)Nc3cc(C(C)(C)C)cc(N)c3SCCNC(=N)N)c2)c1 [Compound 1] | > 300 µg/mL | > 300 µg/mL | 2.2 µg/mL (≈ 2.77 µM) | < 5 µg/mL
4 | CC(C)(C)c1cc(NC(=O)CCCCNC(=N)N)c(SCCN)c(NC(=O)Nc2cc(C(C)(C)C)cc(NC(=O)CCCCNC(=N)N)c2SCCN)c1 [Compound 4] | > 300 µg/mL | > 300 µg/mL | 18.4 µg/mL (≈ 23.4 µM) | < 20 µg/mL
